Source: patent publication US10676431B2, “Phenylpyrrolidinone formyl peptide 2 receptor agonists” (BRISTOL-MYERS SQUIBB COMPANY, priority 2018, dated 2020)

What was measured:
human FPR2 = human FPR2 (Homo sapiens (Human), UniProt P25090); experiment: FPR2 cyclic adenosine monophosphate (cAMP) assay; assay type: cell-based; details: CHO cells overexpressing human FPR2; forskolin 5 μM, IBMX 200 μM; inhibition of cAMP production, HTRF; read-out: hFPR2 cAMP2 EC50
Method: (§1) FPR2 and FPR1 Cyclic Adenosine Monophosphate (cAMP) Assays. A mixture of forskolin (5 μM final for FPR2 or 10 μM final for FPR1) and IBMX (200 μM final) were added to 384-well Proxiplates (Perkin-Elmer) pre-dotted with test compounds in DMSO (1% final) at final concentrations in the range of 0.020 nM to 100 μM. Chinese Hamster Ovary cells (CHO) overexpressing human FPR1 or human FPR2 receptors were cultured in F-12 (Ham's) medium supplemented with 10% qualified FBS, 250 μg/ml zeocin and 300 μg/ml hygromycin (Life Technologies). Reactions were initiated by adding 2,000 human FPR2 cells per well or 4,000 human FPR1 cells per well in Dulbecco's PBS (with calcium and magnesium) (Life Technologies) supplemented with 0.1% BSA (Perkin-Elmer). The reaction mixtures were incubated for 30 min at room temperature. The level of intracellular cAMP was determined using the HTRF HiRange cAMP assay reagent kit (Cisbio) according to manufacturer's instruction. Solutions of cryptate conjugated anti-cAMP and d2 fluorophore-labelled cAMP were made in a supplied lysis buffer separately. Upon completion of the reaction, the cells were lysed with equal volume of the d2-cAMP solution and anti-cAMP solution. After a 1-h room temperature incubation, time-resolved fluorescence intensity was measured using the Envision (Perkin-Elmer) at 400 nm excitation and dual emission at 590 nm and 665 nm. A calibration curve was constructed with an external cAMP standard at concentrations ranging from 1 μM to 0.1 pM by plotting the fluorescent intensity ratio from 665 nm emission to the intensity from the 590 nm emission against cAMP concentrations. The potency and activity of a compound to inhibit cAMP production was then determined by fitting to a 4-parametric logistic equation from a plot of cAMP level versus compound concentrations.

human FPR1 = human FPR1 (Homo sapiens (Human), UniProt P21462); experiment: FPR1 cyclic adenosine monophosphate (cAMP) assay; assay type: cell-based; details: CHO cells overexpressing human FPR1; forskolin 10 μM, IBMX 200 μM; inhibition of cAMP production, HTRF; read-out: hFPR1 cAMP EC50
human FPR1, sequence (P21462 whole entry): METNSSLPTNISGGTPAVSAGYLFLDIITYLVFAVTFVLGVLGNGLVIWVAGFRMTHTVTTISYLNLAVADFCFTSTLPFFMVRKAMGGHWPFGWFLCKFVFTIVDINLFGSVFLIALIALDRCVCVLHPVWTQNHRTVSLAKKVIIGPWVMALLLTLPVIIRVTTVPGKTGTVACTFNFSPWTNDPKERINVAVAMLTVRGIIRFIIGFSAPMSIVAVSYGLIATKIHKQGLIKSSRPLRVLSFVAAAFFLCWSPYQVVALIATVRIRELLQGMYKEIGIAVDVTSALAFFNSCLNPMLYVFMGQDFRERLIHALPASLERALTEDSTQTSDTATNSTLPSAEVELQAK
Method: as §1, with “After a 1-h room temperature incubation, time-resolved fluorescence intensity was measured using the Envision (Perkin-Elmer) at 400 nm excitation and dual emission at 590 nm and 665 nm. A calibration curve was constructed with an external cAMP standard at concentrations ranging from 1 μM to 0.1 pM by plotting the fluorescent intensity ratio from 665 nm emission to the intensity from the 590 nm emission against cAMP concentrations.” left out

human FPR2, sequence (P25090 whole entry): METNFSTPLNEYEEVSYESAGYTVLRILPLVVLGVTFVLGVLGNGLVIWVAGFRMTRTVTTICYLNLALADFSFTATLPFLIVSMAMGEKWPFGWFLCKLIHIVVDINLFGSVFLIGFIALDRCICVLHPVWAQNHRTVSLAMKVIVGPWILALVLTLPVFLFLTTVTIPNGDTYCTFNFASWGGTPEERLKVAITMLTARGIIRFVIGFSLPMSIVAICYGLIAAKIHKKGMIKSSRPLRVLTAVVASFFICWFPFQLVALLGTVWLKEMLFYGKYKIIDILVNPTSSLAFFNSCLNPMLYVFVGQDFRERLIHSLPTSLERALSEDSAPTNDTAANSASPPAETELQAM

Row | SMILES | EC50 (human FPR2) | EC50 (human FPR1)
1 | CP(C)(=O)c1ccccc1-c1ccc(N2CC[C@@H](NC(=O)Nc3ccc(Cl)cn3)C2=O)c(F)c1F [Example 49] | 0.0056 µM | 3.4 µM
2 | CS(=O)(=O)Nc1ccccc1-c1ccc(N2CC[C@@H](NC(=O)Nc3ccc(C(F)(F)F)cc3F)C2=O)c(C2CC2)c1 [Example 43] | 0.0033 µM | 0.12 µM
3 | O=C(Nc1ccc(Cl)cc1F)N[C@@H]1CCN(c2ccc(-c3cnn(C(F)F)c3)c(F)c2F)C1=O [Example 79] | 0.039 µM | > 10 µM
4 | CP(C)(=O)c1ccccc1-c1ccc(N2CC[C@@H](NC(=O)Nc3csc(Cl)c3)C2=O)c(F)c1F [Example 133] | 0.15 µM | > 5 µM
5 | CP(C)(=O)c1ccccc1-c1ccc(N2CC[C@@H](NC(=O)Nc3ccc(Cl)cc3F)C2=O)c2c1OC(F)(F)O2 [Example 106] | 0.0031 µM | 0.0035 µM
6 | CP(C)(=O)c1ccccc1-c1ccc(N2CC(CO)[C@@H](NC(=O)Nc3ccc(C(F)(F)F)cc3F)C2=O)c(F)c1F (stereo partly shown) [Example 124] | 0.00079 µM | 0.76 µM
7 | CC(C)c1cc(-c2ccccc2CO)ccc1N1CC[C@@H](NC(=O)Nc2ccc(Cl)cc2F)C1=O [Example 38] | 0.0035 µM | 0.042 µM
8 | CS(=O)(=O)Nc1ccccc1-c1ccc(N2CC[C@@H](NC(=O)Nc3c(F)cc(Cl)cc3F)C2=O)c(F)c1F [Example 4] | 0.00093 µM | 1.7 µM
9 | CCP(=O)(CC)c1ccccc1-c1ccc(N2CC[C@@H](NC(=O)Nc3ccc(C(F)(F)F)cc3F)C2=O)c(F)c1F [Example 68] | 0.00053 µM | 0.15 µM
10 | CP(C)(=O)c1ccccc1-c1ccc(N2CC3(CC3)[C@@H](NC(=O)Nc3ccc(Cl)cc3F)C2=O)c(F)c1F [Example 132] | 0.00048 µM | 0.028 µM
11 | CS(=O)(=O)c1ccccc1-c1ccc(N2CC[C@@H](NC(=O)Nc3ccc(C(F)(F)F)cc3)C2=O)c(F)c1F [Example 11] | 0.0026 µM | 0.29 µM
12 | N#Cc1ccccc1-c1ccc(N2CC[C@@H](NC(=O)Nc3ccc(Cl)cc3)C2=O)c(F)c1F [Example 8] | 0.002 µM | 0.061 µM
13 | CP(C)(=O)c1ncccc1-c1ccc(N2C(=O)[C@H](NC(=O)Nc3ccc(C(F)(F)F)cc3F)C[C@H]2CO)c(F)c1F [Example 123] | 0.0015 µM | 0.24 µM
14 | O=C(Nc1ccc(Cl)cc1F)N[C@@H]1CCN(c2ccc(-c3ccccc3F)c(F)c2F)C1=O [Example 21] | 0.031 µM | 0.39 µM
15 | O=C(Nc1ccc(Cl)cc1)N[C@@H]1CCN(c2ccc(-c3ccccc3CO)c(F)c2F)C1=O [Example 3] | 0.0011 µM | 0.22 µM
16 | CP(C)(=O)c1ccccc1-c1ccc(N2CC[C@@H](NC(=O)Nc3ccc(C(F)(F)F)cc3F)C2=O)c(F)c1OC(F)(F)F [Example 88] | 0.0053 µM | 0.0049 µM
17 | N#Cc1ccccc1-c1ccc(N2CC[C@@H](NC(=O)Nc3ccc(Cl)cc3F)C2=O)c(F)c1F [Example 9] | 0.0021 µM | 0.031 µM
18 | CC1(C)CN(c2ccc(-c3cccnc3P(C)(C)=O)c(F)c2F)C(=O)[C@@H]1NC(=O)Nc1ccc(C(F)(F)F)cc1F [Example 110] | 0.0011 µM | 0.64 µM
19 | CC(C)c1cc(-c2ccccc2S(C)(=O)=O)ccc1N1CC[C@@H](NC(=O)Nc2ccc(Cl)cc2F)C1=O [Example 40] | 0.0046 µM | 0.05 µM

More lines, in order of falling EC50 (human FPR2), values ahead:

Row | EC50 (human FPR2) | EC50 (human FPR1) | SMILES
20 | 0.043 µM | 0.45 µM | CC(=O)NC(C)c1cccc(-c2ccc(N3CC[C@@H](NC(=O)Nc4ccc(Cl)cc4F)C3=O)c(F)c2F)c1 (stereo partly shown) [Example 44]
21 | 0.024 µM | > 10 µM | CS(=O)(=O)Nc1ccccc1-c1ccc(N2CC[C@@H](NC(=O)Nc3ccc(C(F)(F)F)nc3)C2=O)cc1 [Example 20]
22 | 0.012 µM | 0.12 µM | O=C(Nc1ccc(Cl)cc1)N[C@@H]1CCN(c2ccc(-c3ccccc3F)c(F)c2F)C1=O [Example 16]
23 | 0.007 µM | 0.19 µM | CS(=O)(=O)c1ccccc1-c1ccc(N2CC[C@@H](NC(=O)Nc3ccc(C(F)(F)F)cc3F)C2=O)c(F)c1F [Example 29]
24 | 0.006 µM | 0.28 µM | CP(C)(=O)c1ncncc1-c1ccc(N2CC[C@@H](NC(=O)Nc3ccc(Cl)cc3F)C2=O)c(F)c1F [Example 84]
25 | 0.0044 µM | 0.025 µM | CP(C)(=O)c1ccccc1-c1ccc(N2CC[C@@H](NC(=O)Nc3ccc(C(F)(F)F)cc3F)C2=O)c(F)c1C1CC1 [Example 89, (R)-1-(1-(2-Cyclopropyl-2′-(dimethylphosphoryl)-3-fluoro-[1,1′-biphenyl]-4-yl)-2-oxopyrrolidin-3-yl)-3-(2-fluoro-4-(trifluoromethyl)phenyl)urea]
26 | 0.0037 µM | 0.12 µM | CC(C)c1cc(-c2ccccc2P(C)(C)=O)ccc1N1CC[C@@H](NC(=O)Nc2ccc(C(F)(F)F)cc2F)C1=O [Example 60]
27 | 0.003 µM | 0.14 µM | CC(C)c1cc(-c2ccccc2P(C)(C)=O)ccc1N1CC[C@@H](NC(=O)Nc2ccc(Cl)cc2F)C1=O [Example 45]
28 | 0.0028 µM | 0.064 µM | CC(C)c1cc(-c2cccnc2NS(C)(=O)=O)ccc1N1CC[C@@H](NC(=O)Nc2ccc(Cl)cc2F)C1=O [Example 47]
29 | 0.0025 µM | 1500 µM | CP(C)(=O)c1ccccc1-c1ccc(N2CC[C@@H](NC(=O)Nc3cccc(Cl)c3)C2=O)c(F)c1F [Example 134]
30 | 0.0022 µM | 0.13 µM | CS(=O)(=O)c1ccccc1-c1ccc(N2CC[C@@H](NC(=O)Nc3ccc(Cl)cc3)C2=O)c(F)c1F [Example 10]
31 | 0.002 µM | 0.092 µM | CCP(=O)(CC)c1ncccc1-c1ccc(N2CC[C@@H](NC(=O)Nc3ccc(C(F)(F)F)cc3F)C2=O)c(F)c1F [Example 100]
32 | 0.00121 µM | 0.89 µM | CC1C[C@@H](NC(=O)Nc2ccc(C(F)(F)F)cc2F)C(=O)N1c1ccc(-c2ccccc2P(C)(C)=O)c(F)c1F (stereo partly shown) [Example 116]
33 | 0.0012 µM | 0.045 µM | CP(C)(=O)c1ccccc1-c1ccc(N2CC[C@@H](NC(=O)Nc3ccc(Cl)cc3F)C2=O)c(Cl)c1Cl [Example 78]
34 | 0.00095 µM | 1 µM | CP(C)(=O)c1ccccc1-c1ccc(N2CC[C@@H](NC(=O)Nc3ccc(C(F)(F)F)cc3F)C2=O)c(F)c1F [Example 57, (R)-1-(1-(2′-(dimethylphosphoryl)-2,3-difluoro-[1,1′-biphenyl]-4-yl)-2-oxopyrrolidin-3-yl)-3-(2-fluoro-4-(trifluoromethyl)phenyl)urea]
35 | 0.00081 µM | 0.61 µM | CC1C[C@@H](NC(=O)Nc2ccc(Cl)cc2F)C(=O)N1c1ccc(-c2cccnc2P(C)(C)=O)c(F)c1F (stereo partly shown) [Example 122]
36 | 0.00055 µM | 0.047 µM | CS(=O)(=O)Nc1ccccc1-c1ccc(N2CC[C@@H](NC(=O)Nc3ccc(Cl)cc3F)C2=O)c(C2CC2)c1 [Example 26]
37 | 0.00052 µM | 0.027 µM | CP(C)(=O)c1ccccc1-c1ccc(N2CC[C@@H](NC(=O)Nc3ccc(Cl)cc3F)C2=O)c(F)c1Cl [Example 81]
38 | 0.00044 µM | 0.39 µM | CC1C[C@@H](NC(=O)Nc2ccc(Cl)cc2F)C(=O)N1c1ccc(-c2ccccc2P(C)(C)=O)c(F)c1F (stereo in doubt) [Example 109, 1-(4-Chloro-2-fluorophenyl)-3-(1-(2′-(dimethylphosphoryl)-2,3-difluoro-[1,1′-biphenyl]-4-yl)-5-methyl-2-oxopyrrolidin-3-yl)urea]
